# Measured values published in ChEMBL document CHEMBL3046339, “Insecticidal activity of Maytenus species (Celastraceae) nortriterpene quinone methides against codling moth, Cydia pomonella (L.) (Lepidoptera: tortricidae)” (2000).
# Assays:
# Assay type in all cases: functional
# [1] = system: Cydia pomonella; test: Insecticidal activity against Cydia pomonella (codling moth) assessed as mortality at 4 mg/kg diet topically measured after 10 days of continuous exposure (reference value: 3.3 +/- 3.3%); conditions: topical, 240 h
# [2] = system: Cydia pomonella; test: Insecticidal activity against Cydia pomonella (codling moth) at 6 mg/kg assessed as growth regulation measured as number of head capsules of larvae after 5 days of continuous exposure (reference value: 0.2 +/- 0.2%)
# [3] = system: Cydia pomonella; test: Insecticidal activity against Cydia pomonella (codling moth) assessed as mortality at 8 mg/kg diet topically measured after 5 days of continuous exposure (reference value: 0%); conditions: topical, 120 h
# [4] = system: Cydia pomonella; test: Insecticidal activity against Cydia pomonella (codling moth) at 12 mg/kg assessed as growth regulation measured as number of head capsules of larvae after 10 days of continuous exposure Rvb = (1.5 +/- 0.2%)
# [5] = system: Cydia pomonella; test: Antifeedant activity against Cydia pomonella (codling moth) at 6 mg/kg diet topically measured after 5 days of continuous exposure (reference value: 6.7 +/- 6.7%)
# [6] = system: Cydia pomonella; test: Insecticidal activity against Cydia pomonella (codling moth) assessed as mortality at 20 mg/kg diet topically measured after 5 days of continuous exposure (reference value: 0%); conditions: topical, 120 h
# [7] = system: Cydia pomonella; test: Insecticidal activity against Cydia pomonella (codling moth) at 8 mg/kg assessed as growth regulation measured as number of head capsules of larvae after 5 days of continuous exposure (reference value: 0.2 +/- 0.2%)
# [8] = system: Cydia pomonella; test: Insecticidal activity against Cydia pomonella (codling moth) assessed as mortality at 6 mg/kg diet topically measured after 5 days of continuous exposure (reference value: 0%); conditions: topical, 120 h
# [9] = system: Cydia pomonella; test: Insecticidal activity against Cydia pomonella (codling moth) at 20 mg/kg assessed as growth regulation measured as number of head capsules of larvae after 5 days of continuous exposure (reference value: 0.2 +/- 0.2%)
# [10] = system: Cydia pomonella; test: Insecticidal activity against Cydia pomonella (codling moth) at 16 mg/kg assessed as growth regulation measured as number of head capsules of larvae after 10 days of continuous exposure Rvb = (1.5 +/- 0.2%)
# [11] = system: Cydia pomonella; test: Insecticidal activity against Cydia pomonella (codling moth) at 1 mg/kg assessed as growth regulation measured as number of head capsules of larvae after 10 days of continuous exposure Rvb = (1.5 +/- 0.2%)
# [12] = system: Cydia pomonella; test: Insecticidal activity against Cydia pomonella (codling moth) assessed as mortality at 1 mg/kg diet topically measured after 5 days of continuous exposure (reference value: 0%); conditions: topical, 120 h
# [13] = system: Cydia pomonella; test: Antifeedant activity against Cydia pomonella (codling moth) at 4 mg/kg diet topically measured after 5 days of continuous exposure (reference value: 6.7 +/- 6.7%)
# [14] = system: Cydia pomonella; test: Insecticidal activity against Cydia pomonella (codling moth) assessed as mortality at 1 mg/kg diet topically measured after 10 days of continuous exposure (reference value: 3.3 +/- 3.3%); conditions: topical, 240 h
# [15] = system: Cydia pomonella; test: Insecticidal activity against Cydia pomonella (codling moth) assessed as mortality at 2 mg/kg diet topically measured after 10 days of continuous exposure (reference value: 3.3 +/- 3.3%); conditions: topical, 240 h
# [16] = system: Cydia pomonella; test: Antifeedant activity against Cydia pomonella (codling moth) at 18 mg/kg diet topically measured after 5 days of continuous exposure (reference value: 6.7 +/- 6.7%)
# [17] = system: Cydia pomonella; test: Insecticidal activity against Cydia pomonella (codling moth) assessed as mortality at 12 mg/kg diet topically measured after 10 days of continuous exposure (reference value: 3.3 +/- 3.3%); conditions: topical, 240 h
# [18] = system: Cydia pomonella; test: Insecticidal activity against Cydia pomonella (codling moth) assessed as mortality at 16 mg/kg diet topically measured after 10 days of continuous exposure (reference value: 3.3 +/- 3.3%); conditions: topical, 240 h
# [19] = system: Cydia pomonella; test: Antifeedant activity against Cydia pomonella (codling moth) at 1 mg/kg diet topically measured after 10 days of continuous exposure (reference value: 6.7 +/- 6.7%)
# [20] = system: Cydia pomonella; test: Insecticidal activity against Cydia pomonella (codling moth) at 18 mg/kg assessed as growth regulation measured as number of head capsules of larvae after 10 days of continuous exposure Rvb = (1.5 +/- 0.2%)
smiles,measurement,setting,value
CC1=C(O)C(=O)C=C2C1=CC=C1[C@@]2(C)CC[C@@]2(C)[C@@H]3C[C@](C)(O)C(=O)C[C@]3(C)CC[C@]12C [20ALPHA-HYDROXYTINGENONE],mortality at 4 mg/kg,[1],16.7%
same,Activity,[2],0
same,mortality at 8 mg/kg,[3],3.3%
same,Activity,[4],0.3
same,Activity,[5],83.3%
same,mortality at 20 mg/kg,[6],100%
same,Activity,[7],0
same,mortality at 6 mg/kg,[8],10%
same,Activity,[9],0
same,Activity,[10],0
same,Activity,[11],1.2
same,mortality at 1 mg/kg,[12],3.3%
same,Activity,[13],46.7%
same,mortality at 1 mg/kg,[14],3.3%
same,mortality at 2 mg/kg,[15],0%
same,Activity,[16],100%
same,mortality at 12 mg/kg,[17],60%
same,mortality at 16 mg/kg,[18],93.3%
same,Activity,[19],6.7%
same,Activity,[20],0
